Where a name gives a salt, the structure may show the parent alone.
Tests used:
[1] = system: Caloglyphus polyphyllae mites; settings: Shimizu et al., 2001; cited from earlier work
[2] = system: Lardoglyphus konoi; settings: 10 ng/μl; Kuwahara et al., 1991; cited from earlier work
[3] = system: Dermatophagoides farinae; test: Acaricide lethal dosage bioassay; format: in vivo
[4] = system: Dermatophagoides farinae; test: Y-tube olfactometer behavioural bioassay; format: in vivo
Description: (§1) A Y-tube olfactometer was used to observe the behavioural responses elicited by house dust mites, as described previously (Skelton et al., in press). For each experiment, a treatment and control stimulus was added (1 μl) to separate filter paper discs (1.5 cm diameter), allowed to dry for 1 min, and placed into each arm of the olfactometer. A power analysis was carried out at 80% power, 95% significance; to calculate appropriate sample sizes to see 40% difference in effect (70% to treatment) (STATA 8.2 software). […] Treatments comprised: (1) chromatography fractions derived from the D. farinae extract .v. hexane, (2) neryl formate (10 & 100 ng/μl) .v. hexane, (3) a female D. farinae extract .v. neryl formate, (4) a male D. farinae extract .v. neryl formate, and (5) a female D. pteronyssinus extract .v. neryl formate. Categorical data from the Y-tube olfactometer bioassays were tested with a Chi-squared test for goodness of fit, with a Yates correction factor (preference to a particular arm) (Fowler et al., 1998). Time data were log 10-transformed prior to parametric data analysis. A three-way ANOVA (Minitab 11 for Windows) was carried out to analyse if the log time to make a decision in the treatment arm (neryl formate) was affected by the concentration of neryl formate, gender and house dust mite species studied.

[5] = system: Dermatophagoides pteronyssinus; test: Y-tube olfactometer behavioural bioassay; format: in vivo; settings: for global responses (males and females) to the arm containing neryl formate: x^2=11.025, P<0.01, n=40
Description: as §1

[6] = system: Dermatophagoides farinae; test: Semi-field carpet disc lure bioassay with sticky trap; format: in vivo; settings: 10 ng/10 μl neryl formate in hexane on filter paper v. hexane; cut pile and loop pile carpet; 1-40 min
Description: (§2) Initially, a bioassay was designed to test the efficacy of neryl formate in attracting populations of the American house dust mite, Dermatophagoides farinae, and the European house dust mite, D. pteronyssinus, from carpet sections. The bioassay involved the placement of D. farinae and D. pteronyssinus onto cut carpet discs (5 cm in diameter) which were placed underneath a glass Petri dish to maintain humidity. Two types of carpet (both obtained from Heuga Home Flooring BV) were tested: cut pile (Simply Soft Aquarius) and loop pile (Working Week Boucle Ink Pad). Aliquots of a 10 ng/10 μl neryl formate solution (in hexane) were used for the lure treatment, whilst hexane alone was used for the control. Both solutions were injected onto filter paper discs (2 cm diameter) and placed into the centre of the carpet discs. After an allocated time interval (1, 5, 10, 20 or 40 min), a sticky trap was placed onto the carpet to capture the mites, and subsequently placed under a microscope to record the amount and position of the mites, to ascertain if the mites had moved from their original position. Data were analysed using a generalized linear model assuming a binomial distribution with a logit link and dispersion parameter equal to 1.0 (see Table 1). The analysis of deviance for both responses was obtained using the MODEL procedure as implemented in GenStat 8.0 (Rothamsted Research).

[7] = system: Dermatophagoides pteronyssinus; test: as above; format: in vivo; settings: 10 ng/10 μl neryl formate in hexane on filter paper v. hexane; cut pile and loop pile carpet; 1-40 min
Description: as §2

[8] = 10 ng v. hexane, x^2=6.05, P<0.05, n=20

CC(C)=CC/C=C(/C=O)CC=O [β-acaridial]
amount at which mites significantly respond [1]: 10 ng

CCC[C@@H](C)C[C@@H](C)C[C@@H](C)C[C@@H](C)OC=O [(1R,3R,5R,7R) lardolure, (1R,3R,5R,7R)-1,3,5,7-tetramethyldecyl formate]
concentration at which mites significantly respond [2]: 10 ppm

C/C=C(\C)C(=O)O[C@H]1C[C@@H](OC(C)=O)[C@@]2(C(=O)OC)CO[C@H]3[C@@H](O)[C@@](C)([C@]45O[C@@]4(C)[C@H]4C[C@@H]5O[C@@H]5OC=C[C@@]54O)[C@H]4[C@]1(CO[C@]4(O)C(=O)OC)[C@@H]32 [azadirachtin]
mortality [3]: little mortality

CC(C)=CCC/C(C)=C\COC=O [neryl formate, (Z)-3,7-dimethyl-2,6-octadienyl formate]
response of females to neryl formate [4, 8]: significant response
global responses of males and females to the arm containing neryl formate ([4]; 10 ng v. hexane, x^2=9.025, P<0.01, n=40): significant
global responses of males and females to the arm containing neryl formate ([4]; 100 ng v. hexane, x^2=4.225, P<0.05, n=40): significant
response of males to neryl formate ([4]; 100 ng v. hexane, x^2=6.05, P<0.05, n=20): significant response
response to neryl formate or con-specific extract ([4]; females, v. female D. farinae extract, x^2=1.38, P=0.24, n=18): no significant difference
response to synthetic neryl formate or con-specific extract containing naturally produced neryl formate ([4]; males, v. male D. farinae extract, x^2=0.10, P=0.75, n=14): no significant difference
response of females to neryl formate ([5]; 10 ng v. hexane, x^2=4.05, P<0.05, n=20): significant response
response of males to neryl formate [5, 8]: significant response
global responses (males and females) to the arm containing neryl formate ([5]; 10 ng v. hexane): significant
response of females to neryl formate ([5]; 100 ng v. hexane, x^2=8.45, P<0.01, n=20): significant response
global responses (males and females) to the arm containing neryl formate ([5]; 100 ng v. hexane): significant
response to synthetic neryl formate or con-specific extract ([5]; females, v. female D. pteronyssinus extract, x^2=0.06, P=0.80, n=16): not significantly different
number of mites retrieved on sticky traps [6]: significantly increased
number of mites retrieved on sticky traps [7]: significantly increased
